Experimental findings from US11051515B2, “3-acyl-benzamides and their use as herbicides” (Bayer Aktiengesellschaft, priority 2017, dated 2021) are described below.

In assay [1] the test system is AMARE. Nature of the assay: Post-emergence action against AMARE. The class given is in vivo, Amaranthus retroflexus. The note with it: post-emergence, dosage 80 g/ha, visual assessment about 3 weeks after treatment vs untreated controls. The procedure, abridged: (§1)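 Weeds grown in sandy loam in greenhouse, treated at one-leaf stage (2–3 weeks after sowing) with WP or EC formulations sprayed as aqueous suspension/emulsion at 600 to […] water with 0.2% wetting agent. Visual rating after about 3 weeks versus untreated controls, as % herbicidal action (100% = plants dead, 0% = like control).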

The subject of another assay is ALOMY. As to the kind of experiment: Pre-emergence action against ALOMY. The class given is in vivo, Alopecurus myosuroides. The following applies: dosage 320 g/ha, pre-emergence, scored visually after 3 weeks vs untreated controls, 100% = plants have died, 0% = like control plants. The procedure, abridged:
(§2)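 Seeds sown in sandy loam in wood-fiber pots and covered with soil. Greenhouse growth; visual damage scored after 3 weeks versus untreated controls (100% = dead, 0% = like control).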

Assay [2] concerns ECHCG. As to the kind of experiment: Post-emergence action against ECHCG. The format is in vivo, Echinochloa crus-galli. The note with it: post-emergence, dosage 80 g/ha, visual assessment about 3 weeks after treatment vs untreated controls. In short, it runs like this: as §1
The subject of assay [3] is POLCO. As to the kind of experiment: Post-emergence action against POLCO. The format is in vivo, Polygonum convolvulus. The following applies: post-emergence, dosage 80 g/ha. The protocol: Seeds of monocotyledonous and dicotyledonous weed and crop plants are laid out in sandy loam soil in wood-fiber pots, covered with soil and cultivated in a greenhouse under good growth conditions. 2 to 3 weeks after sowing, the test plants are treated at the one-leaf stage. The compounds of the invention, formulated in the form of wettable powders (WP) or as emulsion concentrates (EC), are then sprayed onto the green parts of the plants in the form of an aqueous suspension or emulsion at a water application rate equating to […], with addition of 0.2% wetting agent. After the test plants have been left to stand in the greenhouse under optimal growth conditions for about 3 weeks, the action of the preparations is assessed visually in comparison to untreated controls (herbicidal action in percent (%): 100% activity=the plants have died, 0% activity=like control plants). […] At the same time, inventive compounds leave Gramineae crops such as barley, wheat, rye, millet/Sorghum, corn or rice virtually undamaged when applied post-emergence, even at high active ingredient dosages. In addition, some substances are also harmless to dicotyledonous crops such as soya, cotton, oilseed rape, sugar beet or potatoes. Some of the compounds according to the invention have high selectivity and are therefore suitable for controlling unwanted vegetation in agricultural crops by the post-emergence method. The data of Tables B18 to B34 below illustrate, in an exemplary manner, the […] herbicidal action of the compounds according to the invention, the herbicidal activity being stated in percent.

The subject of the next assay is PHBPU. Nature of the assay: Post-emergence action against PHBPU. The class given is in vivo, Pharbitis purpurea. The note with it: post-emergence, dosage 80 g/ha. The procedure, abridged: as §1
The subject of assay [4] is ABUTH. Nature of the assay: Pre-emergence action against ABUTH. The class given is in vivo, Abutilon theophrasti. The following applies: pre-emergence, dosage 320 g/ha, scored visually after 3 weeks vs untreated controls. The procedure, abridged:
as §2

The test system of assay [5] is STEME. As to the kind of experiment: Pre-emergence action against STEME. The format is in vivo, Stellaria media. The following applies: Dosage 320 g/ha, pre-emergence. In short, it runs like this: as §2
The subject of assay [6] is VIOTR. Nature of the assay: Post-emergence action against VIOTR. The format is in vivo, Viola tricolor. The note with it: post-emergence, dosage 80 g/ha. The procedure, abridged: as §1
Assay [7] relates to ECHCG. As to the kind of experiment: Pre-emergence action against ECHCG. The following applies: pre-emergence, dosage 320 g/ha, scored visually after 3 weeks vs untreated controls. The format is in vivo, Echinochloa crus-galli. The procedure, abridged:
as §2

Assay [8] has as its system POLCO. Nature of the assay: Pre-emergence action against POLCO. The class given is in vivo, Polygonum convolvulus. The following applies: Dosage 320 g/ha, pre-emergence. The text has this:
Seeds of monocotyledonous and dicotyledonous weed plants and crop plants are laid out in sandy loam soil in wood-fiber pots and covered with soil. The compounds of the invention, formulated in the form of wettable powders (WP) or as emulsion concentrates (EC), are then applied to the surface of the covering soil in the form of an aqueous suspension or emulsion at a water application rate equating to […], with addition of 0.2% wetting agent. After the treatment, the pots are placed in a greenhouse and kept under good growth conditions for the trial plants. The damage to the test plants is scored visually after a test period of 3 weeks by comparison with untreated controls (herbicidal activity in percent (%): 100% activity=the plants have died, 0% activity=like control plants).

Assay [9] has as its system SETVI. Nature of the assay: Pre-emergence action against SETVI. The class given is in vivo, Setaria viridis. The following applies: pre-emergence, dosage 320 g/ha, scored visually after 3 weeks vs untreated controls. In short, it runs like this: as §2
For assay [10], the system named is ABUTH. Nature of the assay: Post-emergence action against ABUTH. The class given is in vivo, Abutilon theophrasti. The note with it: post-emergence, dosage 80 g/ha, visual assessment about 3 weeks after treatment vs untreated controls. In short, it runs like this: as §1
Assay [11] deals with STEME. Nature of the assay: Post-emergence action against STEME. The class given is in vivo, Stellaria media. The note with it: post-emergence, dosage 80 g/ha. The procedure, abridged: as §1
Assay [12] has as its system MATIN. Nature of the assay: Post-emergence action against MATIN. The class given is in vivo, Matricaria inodora. The following applies: post-emergence, dosage 80 g/ha, visual assessment about 3 weeks after treatment vs untreated controls. The procedure, abridged:
as §1

Assay [13] has as its system VIOTR. Nature of the assay: Pre-emergence action against VIOTR. The class given is in vivo, Viola tricolor. The following applies: Dosage 320 g/ha, pre-emergence. In short, it runs like this:
as §2

Assay [14] concerns MATIN. As to the kind of experiment: Pre-emergence action against MATIN. The class given is in vivo, Matricaria inodora. The following applies: Dosage 320 g/ha, pre-emergence. In short, it runs like this: as §2
For assay [15], the system named is AMARE. As to the kind of experiment: Pre-emergence action against AMARE. The format is in vivo, Amaranthus retroflexus. The note with it: pre-emergence, dosage 320 g/ha, scored visually after 3 weeks vs untreated controls. In short, it runs like this:
as §2

The test system of assay [16] is SETVI. Nature of the assay: Post-emergence action against SETVI. The class given is in vivo, Setaria viridis. The following applies: post-emergence, dosage 80 g/ha, visual assessment about 3 weeks after treatment vs untreated controls. In short, it runs like this: as §1
The test system of another assay is CYPES. Nature of the assay: Pre-emergence action against CYPES. The class given is in vivo, Cyperus esculentus. The note with it: pre-emergence, dosage 320 g/ha, scored visually after 3 weeks vs untreated controls. In short, it runs like this:
as §2

Another assay concerns VERPE. As to the kind of experiment: Pre-emergence action against VERPE. The format is in vivo, Veronica persica. The note with it: Dosage 320 g/ha, pre-emergence. The procedure, abridged: as §2

For the compound `CC(=O)c1c(C)ccc(C(=O)Nc2nnnn2C)c1C` [1-1], the pest or weed control at 80 g/ha came to 100% with AMARE [1] (Amaranthus retroflexus, 504 h, read-out: Post-emergence action against AMARE (herbicidal action in percent)); 100% in the assay on ECHCG [2] (Echinochloa crus-galli, 504 h, read-out: Post-emergence action against ECHCG (herbicidal action in percent)); 80% with POLCO [3] (Fallopia convolvulus, 504 h); 90% in the assay on PHBPU (Ipomoea purpurea, 504 h); 100% in the assay with VIOTR [6] (Viola tricolor, 504 h); 100% in the assay with ABUTH [10] (Abutilon theophrasti, 504 h, read-out: Post-emergence action against ABUTH (herbicidal action in percent)). Besides, the pest or weed control at 80 g/ha with STEME [11] (Stellaria media, 504 h) was 100%; with MATIN [12] (Tripleurospermum inodorum, 504 h, read-out: Post-emergence action against MATIN (herbicidal action in percent)), 80%. The pest or weed control at 320 g/ha was determined as 80% in the assay on ALOMY (Alopecurus myosuroides, 504 h, read-out: Pre-emergence action against ALOMY (herbicidal activity in percent)); 90% with ABUTH [4] (Abutilon theophrasti, 504 h, read-out: Pre-emergence action against ABUTH (herbicidal activity)); 90% in the assay with STEME [5] (Stellaria media, 504 h); 90% with ECHCG [7] (Echinochloa crus-galli, 504 h, read-out: Pre-emergence action against ECHCG (herbicidal activity)); 80% in the assay with POLCO [8] (Fallopia convolvulus, 504 h); 90% in the assay on SETVI [9] (Setaria viridis, 504 h, read-out: SETVI (Table B8, pre-emergence herbicidal activity)). The pest or weed control at 320 g/ha in the assay with VIOTR [13] (Viola tricolor, 504 h) was 100%; in the assay on MATIN [14] (Tripleurospermum inodorum, 504 h) it was 100%; in the assay with AMARE [15] (Amaranthus retroflexus, 504 h, read-out: Pre-emergence action against AMARE (herbicidal activity)) it was 100%.

Regarding `CCn1nnnc1NC(=O)c1ccc(C)c(C(C)=O)c1C` [2-1], the “Post-emergence action against AMARE (herbicidal action in percent)” value with AMARE [1] is given as 100%. Moreover, in the assay with ALOMY, the “Pre-emergence action against ALOMY (herbicidal activity in percent)” value is 90%. Further, the “Post-emergence action against ECHCG (herbicidal action in percent)” value with ECHCG [2] worked out at 100%. Further, in the assay on SETVI [16], the “Post-emergence action against SETVI (herbicidal action in percent)” value was 80%. For the same compound, the “Post-emergence action against POLCO” value in the assay on POLCO [3] was determined as 100. In the assay with PHBPU, the “Post-emergence action against PHBPU” value is on record as 90. In the assay with ABUTH [4], the “Pre-emergence action against ABUTH (herbicidal activity)” value is 90%. For the same compound, the “Pre-emergence action against STEME” value in the assay on STEME [5] is 90%. Besides, in the assay with VIOTR [6], the “Post-emergence action against VIOTR” value was 100. The “Pre-emergence action against ECHCG (herbicidal activity)” value in the assay on ECHCG [7] is on record as 90%. Moreover, in the assay on POLCO [8], the “Pre-emergence action against POLCO” value came to 90%. The “SETVI (Table B8, pre-emergence herbicidal activity)” value in the assay on SETVI [9] was 90%. For the same compound, the “Post-emergence action against ABUTH (herbicidal action in percent)” value in the assay with ABUTH [10] came to 80%. In the assay with STEME [11], the “Post-emergence action against STEME” value turned out to be 80. Besides, the “Post-emergence action against MATIN (herbicidal action in percent)” value in the assay with MATIN [12] was 90%. The “Pre-emergence action against CYPES (herbicidal activity)” value in the assay on CYPES came out at 80%. The “Pre-emergence action against VIOTR” value in the assay on VIOTR [13] was 100%. In addition, the “Pre-emergence action against MATIN” value with MATIN [14] is on record as 90%. Also, the “Pre-emergence action against AMARE (herbicidal activity)” value in the assay on AMARE [15] came to 100%.

In the case of `CCn1nnnc1NC(=O)c1ccc(Cl)c(C(=O)C(C)C)c1Cl` [2-280], in the assay on AMARE [1], the “Post-emergence action against AMARE (herbicidal action in percent)” value was found to be 100%. For the same compound, in the assay on ALOMY, the “Pre-emergence action against ALOMY (herbicidal activity in percent)” value is on record as 100%. Besides, the “Post-emergence action against ECHCG (herbicidal action in percent)” value in the assay on ECHCG [2] was determined as 90%. Also, the “Post-emergence action against SETVI (herbicidal action in percent)” value in the assay on SETVI [16] is 90%. For the same compound, the “Post-emergence action against POLCO” value in the assay with POLCO [3] is on record as 80. Moreover, the “Post-emergence action against PHBPU” value in the assay with PHBPU is recorded as 100. Also, the “Pre-emergence action against ABUTH (herbicidal activity)” value with ABUTH [4] was 100%. Moreover, the “Pre-emergence action against STEME” value with STEME [5] is listed as 90%. Also, the “Post-emergence action against VIOTR” value in the assay on VIOTR [6] stood at 90. In addition, the “Pre-emergence action against VERPE” value with VERPE was 90%. The “Pre-emergence action against ECHCG (herbicidal activity)” value in the assay with ECHCG [7] is recorded as 100%. The “Pre-emergence action against POLCO” value in the assay with POLCO [8] stood at 80%. Also, the “Post-emergence action against ABUTH (herbicidal action in percent)” value with ABUTH [10] is 90%. In addition, the “Post-emergence action against STEME” value in the assay on STEME [11] is 100. Also, in the assay with MATIN [12], the “Post-emergence action against MATIN (herbicidal action in percent)” value was 90%. In addition, in the assay with MATIN [14], the “Pre-emergence action against MATIN” value came to 100%. Also, the “Pre-emergence action against AMARE (herbicidal activity)” value in the assay with AMARE [15] is recorded as 100%.
